Experimental data as given in US20050267221A1, “Use of curcumin and analogues thereof as inhibitors of ACC2” (Research Development Foundation, priority 2004, published 2005).

Assays:
recombinant human ACC2 = recombinant human ACC2 (Homo sapiens, UniProt O00763); assay: Radioactive assay of ACC2 activity ([14C]KHCO3 incorporation into malonyl-CoA); type: biochemical
Description: The reaction mixture contained 50 mM HEPES, pH 7.5, 2.5 mM MnCl2, 2.0 mM DTT, 0.125 mM acetyl-CoA, 4.0 mM ATP, 12.5 mM [^14C]KHCO3 (4×10^6 dpm), 0.75 mg/mL BSA, 10 mM tripotassium citrate and 0.1-0.2 μg ACC enzyme, in a total volume of 150 μL. The reaction was initiated by the addition of ACC2 and the assay was carried out at 37° C. for 2-7 min. The reaction was stopped by the addition of 50 μL of 6 N HCl. Subsequently, 150 μL was transferred into a glass scintillation vial and evaporated to dryness by heating to 85° C. in a heating block for 1 hour. The dried vials were cooled, 0.5 mL of water and 5 mL of ScintiSafe™ 30% were added, and the radioactivity was determined in a Beckman liquid scintillation counter (LS 3801). The tubes, where HCl was added before the addition of acetyl-CoA carboxylase, served as blanks. Avicin G and curcumin inhibitors were made up as stock solutions in water and DMSO, respectively, and added to the assay at the indicated concentrations such that the DMSO concentration was 1% (v/v). All reactions were performed in duplicate. Enzyme activity was based on radioactivity detected in malonyl-CoA and the dpm's set to 100% activity in the absence of any test compound. Inhibition by 1% (v/v) DMSO which was 16% was subtracted from values obtained in the dose response study.
A dose-response series was conducted with curcumin (in DMSO) to verify a classical inhibition pattern. In this study, all curcumin concentrations were added in 1% (v/v) DMSO and the enzyme activity measured.
The radioactive assay (as described in Example 3) was used to determine effects of the test compounds, avicin G and curcumin, on human acetyl-CoA carboxylase 2.

[1] = cited from earlier work

Chain of recombinant human ACC2 (O00763 whole entry): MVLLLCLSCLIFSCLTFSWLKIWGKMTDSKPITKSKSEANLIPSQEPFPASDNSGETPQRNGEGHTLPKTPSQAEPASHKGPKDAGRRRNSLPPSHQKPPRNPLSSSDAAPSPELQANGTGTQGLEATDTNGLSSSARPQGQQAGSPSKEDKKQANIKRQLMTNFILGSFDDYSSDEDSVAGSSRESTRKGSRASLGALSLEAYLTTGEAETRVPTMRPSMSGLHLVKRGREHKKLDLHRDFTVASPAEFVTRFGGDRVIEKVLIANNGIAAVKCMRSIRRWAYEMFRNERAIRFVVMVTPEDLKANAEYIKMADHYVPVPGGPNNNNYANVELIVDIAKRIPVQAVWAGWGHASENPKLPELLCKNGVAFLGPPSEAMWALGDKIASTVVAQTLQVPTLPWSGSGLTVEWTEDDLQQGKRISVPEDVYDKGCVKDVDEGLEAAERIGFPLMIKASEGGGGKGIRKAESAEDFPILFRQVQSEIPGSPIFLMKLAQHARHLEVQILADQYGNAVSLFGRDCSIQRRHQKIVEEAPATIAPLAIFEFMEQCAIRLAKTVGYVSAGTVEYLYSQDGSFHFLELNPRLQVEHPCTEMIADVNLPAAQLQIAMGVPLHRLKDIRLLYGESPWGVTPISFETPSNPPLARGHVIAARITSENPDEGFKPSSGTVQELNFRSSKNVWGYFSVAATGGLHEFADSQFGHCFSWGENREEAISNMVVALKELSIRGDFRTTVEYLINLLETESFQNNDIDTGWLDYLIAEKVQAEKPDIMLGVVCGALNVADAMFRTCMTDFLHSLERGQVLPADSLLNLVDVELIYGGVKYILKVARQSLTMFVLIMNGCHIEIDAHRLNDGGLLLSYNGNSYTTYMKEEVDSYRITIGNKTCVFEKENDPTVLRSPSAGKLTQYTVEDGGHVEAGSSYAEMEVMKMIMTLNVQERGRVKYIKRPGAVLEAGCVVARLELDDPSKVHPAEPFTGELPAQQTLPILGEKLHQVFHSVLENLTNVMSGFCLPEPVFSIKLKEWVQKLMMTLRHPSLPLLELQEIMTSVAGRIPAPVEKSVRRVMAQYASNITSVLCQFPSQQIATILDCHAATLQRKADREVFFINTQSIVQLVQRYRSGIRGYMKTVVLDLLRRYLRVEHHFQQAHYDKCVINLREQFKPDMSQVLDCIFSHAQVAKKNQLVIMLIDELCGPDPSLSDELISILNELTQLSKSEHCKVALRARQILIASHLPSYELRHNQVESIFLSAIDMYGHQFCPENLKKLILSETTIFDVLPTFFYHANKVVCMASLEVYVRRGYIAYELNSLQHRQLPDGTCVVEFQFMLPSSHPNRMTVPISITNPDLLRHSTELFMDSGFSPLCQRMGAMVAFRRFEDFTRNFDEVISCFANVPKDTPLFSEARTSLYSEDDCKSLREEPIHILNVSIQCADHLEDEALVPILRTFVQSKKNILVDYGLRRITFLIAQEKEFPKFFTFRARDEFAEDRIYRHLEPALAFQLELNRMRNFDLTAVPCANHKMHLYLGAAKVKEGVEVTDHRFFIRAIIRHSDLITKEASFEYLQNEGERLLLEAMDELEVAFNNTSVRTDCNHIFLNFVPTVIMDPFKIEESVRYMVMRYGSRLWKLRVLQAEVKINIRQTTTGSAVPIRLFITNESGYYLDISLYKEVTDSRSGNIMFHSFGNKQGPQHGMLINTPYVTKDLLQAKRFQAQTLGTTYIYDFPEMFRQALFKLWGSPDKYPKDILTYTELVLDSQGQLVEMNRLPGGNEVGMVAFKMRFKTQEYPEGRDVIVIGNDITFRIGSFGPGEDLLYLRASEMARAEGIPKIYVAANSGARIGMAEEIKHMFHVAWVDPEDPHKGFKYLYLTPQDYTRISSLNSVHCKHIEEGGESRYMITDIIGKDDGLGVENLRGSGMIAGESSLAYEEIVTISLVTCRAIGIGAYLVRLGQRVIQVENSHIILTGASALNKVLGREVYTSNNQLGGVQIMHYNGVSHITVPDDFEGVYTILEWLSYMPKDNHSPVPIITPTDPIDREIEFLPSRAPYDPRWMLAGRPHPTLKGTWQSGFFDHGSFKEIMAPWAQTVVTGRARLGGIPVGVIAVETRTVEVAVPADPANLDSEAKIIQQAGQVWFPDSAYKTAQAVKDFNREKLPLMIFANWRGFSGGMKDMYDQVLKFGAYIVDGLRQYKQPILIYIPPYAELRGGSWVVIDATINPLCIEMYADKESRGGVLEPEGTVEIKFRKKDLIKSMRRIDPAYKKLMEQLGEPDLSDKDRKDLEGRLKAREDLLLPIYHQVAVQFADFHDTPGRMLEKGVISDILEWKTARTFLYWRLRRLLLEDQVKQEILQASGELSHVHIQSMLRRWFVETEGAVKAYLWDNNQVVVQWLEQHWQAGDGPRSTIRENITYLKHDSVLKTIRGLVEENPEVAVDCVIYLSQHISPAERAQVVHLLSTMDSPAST

SMILES	ACC Activity (%) ± S.D. (recombinant human ACC2; human ACC2, additive at 50 μM, curcumin in 1% (v/v) DMSO final, activity without test compound = 100%, duplicate) [%]	dose-response inhibition of ACC2 (in words) (recombinant human ACC2; human ACC2, dose-response series, all concentrations in 1% (v/v) DMSO, FIG. 1)	effect on ACC2 activity (in words) (recombinant human ACC2; recombinant human ACC2, radioactive assay, conditions of Table 1)	activity at 50 µM (recombinant human ACC2; human ACC2, additive at 50 μM, curcumin in 1% (v/v) DMSO final, activity without test compound = 100%, duplicate, read-out: ACC Activity (%) ± S.D.) [%]	solubility in dimethylsulfoxide ([1]; dimethylsulfoxide)	solubility in ethanol ([1]; ethanol)	solubility in ether ([1]; ether)	solubility in water ([1]; water)
C=C[C@](C)(O)CC/C=C(\C)C(=O)O[C@H]1[C@H](O)[C@@H](O)[C@H](O[C@@](C)(C=C)CC/C=C(\CO)C(=O)O[C@H]2C[C@]3(C(=O)O[C@@H]4O[C@H](CO)[C@@H](O)[C@H](O)[C@H]4O[C@@H]4O[C@@H](C)[C@H](O[C@@H]5O[C@@H](CO)[C@H](O)[C@H]5O)[C@@H](O[C@@H]5O[C@H](CO)[C@@H](O)[C@H](O)[C@H]5O)[C@H]4O)[C@H](O)C[C@]4(C)C(=CC[C@@H]5[C@@]6(C)CC[C@H](O[C@@H]7O[C@H](CO[C@@H]8O[C@H](C)[C@H](O)[C@H](O)[C@H]8O[C@@H]8OC[C@@H](O)[C@H](O)[C@H]8O)[C@@H](O)[C@H](O)[C@H]7NC(C)=O)C(C)(C)[C@@H]6CC[C@]54C)[C@@H]3CC2(C)C)O[C@@H]1C [avicin G]	106 ± 7	No significant inhibition	no significant effect	–	–	–	–	–
COc1cc(/C=C/C(=O)CC(=O)/C=C/c2ccc(O)c(OC)c2)ccc1O [curcumin, 1,7,-bis(4-hydroxy-3-methoxyphenyl)-1,6-heptadiene-3,5-dione]	–	–	–	57 ± 3	soluble	soluble	insoluble	insoluble
